Toxic doses and inconclusive results are not listed. Cut-off read from the data, not from the text of the source: active = T/C of 150% or more; inactive = T/C below 125%.
Tested on: L1210 leukemia ip in BDF1 mice, survival T/C
Assay: NCI In Vivo Anticancer Drug Screen. Data for tumor model L1210 Leukemia (intraperitoneal) in B6D2F1 (BDF1) mice
Conditions: endpoint: mean survival time, higher = longer survival
Procedure, shortened: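 Antitumor effect is assessed in tumor-bearing animals. Survival in the compound arm is compared with a vehicle-dosed control arm and expressed as their quotient.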

[1] = dose: 100.0 mg/kg/injection, schedule: Q04DX002 (ip), vehicle: Klucel (hydroxypropylcellulose) (HPC)
[2] = dose: 100.0 mg/kg/injection, schedule: Q01DX009 (ip), vehicle: Klucel (hydroxypropylcellulose) (HPC)
[3] = dose: 200.0 mg/kg/injection, schedule: Q01DX009 (ip), vehicle: Klucel (hydroxypropylcellulose) (HPC)
[4] = dose: 400.0 mg/kg/injection, schedule: Q01DX009 (ip), vehicle: Klucel (hydroxypropylcellulose) (HPC)
[5] = dose: 50.0 mg/kg/injection, schedule: Q01DX001 (ip), vehicle: saline
[6] = dose: 100.0 mg/kg/injection, schedule: Q01DX001 (ip), vehicle: saline
[7] = dose: 100.0 mg/kg/injection, schedule: Q01DX001 (ip), vehicle: Klucel (hydroxypropylcellulose) (HPC)
[8] = dose: 200.0 mg/kg/injection, schedule: Q01DX001 (ip), vehicle: Klucel (hydroxypropylcellulose) (HPC)
[9] = dose: 400.0 mg/kg/injection, schedule: Q01DX001 (ip), vehicle: Klucel (hydroxypropylcellulose) (HPC)
[10] = dose: 100.0 mg/kg/injection, schedule: Q04DX003 (ip), vehicle: Klucel (hydroxypropylcellulose) (HPC)
[11] = dose: 200.0 mg/kg/injection, schedule: Q04DX003 (ip), vehicle: Klucel (hydroxypropylcellulose) (HPC)
[12] = dose: 400.0 mg/kg/injection, schedule: Q04DX003 (ip), vehicle: Klucel (hydroxypropylcellulose) (HPC)
[13] = dose: 50.0 mg/kg/injection, schedule: Q01DX009 (ip), vehicle: saline with Tween-80
[14] = dose: 100.0 mg/kg/injection, schedule: Q01DX009 (ip), vehicle: saline with Tween-80
[15] = dose: 200.0 mg/kg/injection, schedule: Q01DX009 (ip), vehicle: saline with Tween-80
[16] = dose: 10.0 mg/kg/injection, schedule: Q01DX001 (ip), vehicle: carboxymethylcellulose (CMC)
[17] = dose: 75.0 mg/kg/injection, schedule: Q01DX001 (ip), vehicle: saline
[18] = dose: 150.0 mg/kg/injection, schedule: Q01DX001 (ip), vehicle: saline

Measured: T/C

NC(=S)N/N=C/c1cccn1-c1ccc2ncccc2c1[N+](=O)[O-]
inactive: dose: 25.0 mg/kg/injection, schedule: Q04DX002 (ip), vehicle: Klucel (hydroxypropylcellulose) (HPC) 93 % of control | dose: 50.0 mg/kg/injection, schedule: Q04DX002 (ip), vehicle: Klucel (hydroxypropylcellulose) (HPC) 93 % of control | [1] 90 % of control

CCOc1ccc(C(=O)/C=C\c2ccc(N(CC)CC)cc2)cc1
inactive: [2] 96 % of control | [3] 93 % of control | [4] 91 % of control

Cc1cc(C)c(C[N+](C)(C)C)c(C)c1
inactive: [5] 108 % of control | [6] 104 % of control

O=C1NCCCC1C(=O)Nc1cccc2c1NCCC2 (stereo not drawn)
inactive: [7] 105 % of control | [8] 94 % of control | [9] 105 % of control

COc1ccc(C2CCC(=O)CC2(O)C(=O)O)cc1 (stereo not drawn)
inactive: [2] 91 % of control | [10] 98 % of control | [3] 88 % of control | [11] 102 % of control | [4] 98 % of control | [12] 100 % of control

Cc1ccccc1OP(=O)(Oc1ccccc1C)Oc1ccccc1C
inactive: dose: 50.0 mg/kg/injection, schedule: Q01DX001 (ip), vehicle: carboxymethylcellulose (CMC) 104 % of control | dose: 100.0 mg/kg/injection, schedule: Q01DX001 (ip), vehicle: carboxymethylcellulose (CMC) 101 % of control | dose: 200.0 mg/kg/injection, schedule: Q01DX001 (ip), vehicle: carboxymethylcellulose (CMC) 95 % of control | dose: 400.0 mg/kg/injection, schedule: Q01DX001 (ip), vehicle: carboxymethylcellulose (CMC) 93 % of control

O=NN(CCCl)C(=O)N[C@H]1CCCC[C@H]1O
active: dose: 12.0 mg/kg/injection, schedule: Q01DX001 (ip), vehicle: saline with Tween-80 176 % of control | dose: 18.0 mg/kg/injection, schedule: Q01DX001 (ip), vehicle: saline with Tween-80 301 % of control | dose: 26.0 mg/kg/injection, schedule: Q01DX001 (ip), vehicle: saline with Tween-80 443 % of control | dose: 40.0 mg/kg/injection, schedule: Q01DX001 (ip), vehicle: saline with Tween-80 442 % of control | dose: 60.0 mg/kg/injection, schedule: Q01DX001 (ip), vehicle: saline with Tween-80 205 % of control

CCOC1(C)OC2CCCCC2O1 (stereo not drawn)
inactive: [13] 92 % of control | [14] 92 % of control | [15] 92 % of control

c1ccc2c(c1)ccc1cc3c(ccc4ccccc43)cc12
inactive: dose: 25.0 mg/kg/injection, schedule: Q01DX001 (ip), vehicle: Klucel (hydroxypropylcellulose) (HPC) 106 % of control | dose: 50.0 mg/kg/injection, schedule: Q01DX001 (ip), vehicle: Klucel (hydroxypropylcellulose) (HPC) 109 % of control | [7] 108 % of control | [8] 108 % of control | [9] 109 % of control

C[C@@H]1O[C@@H](O[C@H]2CC[C@]3(C=O)[C@H]4CC[C@]5(C)[C@@H](c6ccc(=O)oc6)CC[C@]5(O)[C@@H]4CC[C@]3(O)C2)[C@H](O)[C@H](O)[C@H]1O[C@@H]1O[C@H](CO)[C@@H](O)[C@H](O)[C@H]1O
inactive: dose: 5.0 mg/kg/injection, schedule: Q01DX001 (ip), vehicle: carboxymethylcellulose (CMC) 100 % of control | [16] 94 % of control

Cc1cc2nnc(C)n2c2ccccc12
inactive: [5] 103 % of control | [6] 103 % of control

O=C1OC2(CCNCC2)C(=O)N1c1ccc(F)cc1
inactive: dose: 12.5 mg/kg/injection, schedule: Q01DX001 (ip), vehicle: carboxymethylcellulose (CMC) 104 % of control | dose: 25.0 mg/kg/injection, schedule: Q01DX001 (ip), vehicle: carboxymethylcellulose (CMC) 101 % of control

Cc1cccc(C(=O)NO)c1O
inactive: [17] 101 % of control | [18] 98 % of control

O=C(CC(=O)NO)NO
inactive: dose: 100.0 mg/kg/injection, schedule: Q04DX002 (ip), vehicle: saline with Tween-80 103 % of control | dose: 100.0 mg/kg/injection, schedule: Q04DX002 (ip), vehicle: saline 97 % of control | dose: 200.0 mg/kg/injection, schedule: Q04DX002 (ip), vehicle: saline with Tween-80 97 % of control | dose: 200.0 mg/kg/injection, schedule: Q04DX002 (ip), vehicle: saline 100 % of control | dose: 400.0 mg/kg/injection, schedule: Q04DX002 (ip), vehicle: saline with Tween-80 97 % of control | dose: 400.0 mg/kg/injection, schedule: Q04DX002 (ip), vehicle: saline 100 % of control

Cc1cc2oc(/C=C(\C#N)c3ccc([N+](=O)[O-])cc3)c(C)c2cc1C
inactive: [2] 88 % of control | [10] 98 % of control | [3] 103 % of control | [11] 95 % of control | [4] 99 % of control | [12] 98 % of control

O/N=c1\ncn(O)c2nc[nH]c12
inactive: [17] 93 % of control | [18] 103 % of control | dose: 300.0 mg/kg/injection, schedule: Q01DX001 (ip), vehicle: saline 93 % of control | dose: 300.0 mg/kg/injection, schedule: Q01DX009 (ip), vehicle: saline 123 % of control

O=C(CBr)Nc1cccc(S(=O)(=O)F)c1
inactive: dose: 1.25 mg/kg/injection, schedule: Q01DX009 (ip), vehicle: carboxymethylcellulose (CMC) 89 % of control | dose: 2.5 mg/kg/injection, schedule: Q01DX009 (ip), vehicle: carboxymethylcellulose (CMC) 93 % of control | dose: 2.5 mg/kg/injection, schedule: Q04DX003 (ip), vehicle: carboxymethylcellulose (CMC) 100 % of control | dose: 5.0 mg/kg/injection, schedule: Q01DX009 (ip), vehicle: carboxymethylcellulose (CMC) 86 % of control | dose: 5.0 mg/kg/injection, schedule: Q04DX003 (ip), vehicle: carboxymethylcellulose (CMC) 100 % of control | [16] 96 % of control | dose: 10.0 mg/kg/injection, schedule: Q04DX003 (ip), vehicle: carboxymethylcellulose (CMC) 93 % of control

O=C(Nc1ccc([N+](=O)[O-])cc1Cl)c1cc(Cl)ccc1O
inactive: dose: 50.0 mg/kg/injection, schedule: Q01DX009 (ip), vehicle: Klucel (hydroxypropylcellulose) (HPC) 101 % of control | [2] 104 % of control | [1] 91 % of control | [3] 101 % of control | dose: 200.0 mg/kg/injection, schedule: Q04DX002 (ip), vehicle: Klucel (hydroxypropylcellulose) (HPC) 94 % of control

N#CCc1c[nH]c2ccc(OCc3ccccc3)cc12
inactive: dose: 50.0 mg/kg/injection, schedule: Q01DX009 (ip), vehicle: other 100 % of control | dose: 100.0 mg/kg/injection, schedule: Q01DX009 (ip), vehicle: other 94 % of control | dose: 200.0 mg/kg/injection, schedule: Q01DX009 (ip), vehicle: other 108 % of control

CON=C(c1ccc(N(C)C)cc1)c1ccc(N(C)C)cc1
inactive: [7] 104 % of control | [10] 103 % of control | [8] 101 % of control | [11] 100 % of control | [9] 101 % of control | [12] 92 % of control

Cc1ccc(S(=O)(=O)OC2COCOC2)cc1
inactive: [14] 110 % of control | [15] 102 % of control | dose: 400.0 mg/kg/injection, schedule: Q01DX009 (ip), vehicle: saline with Tween-80 91 % of control

CCCCCCCCCCC(CCCCCCCCCC)CC1CCCCC1
inactive: dose: 100.0 mg/kg/injection, schedule: Q01DX001 (ip), vehicle: saline + alcohol 102 % of control | dose: 200.0 mg/kg/injection, schedule: Q01DX001 (ip), vehicle: saline + alcohol 94 % of control | dose: 400.0 mg/kg/injection, schedule: Q01DX001 (ip), vehicle: saline + alcohol 100 % of control

CCCCCCCCCCCC(=O)OCC1(C)COC(c2ccccc2)=N1 (stereo not drawn)
inactive: dose: 100.0 mg/kg/injection, schedule: Q01DX001 (ip), vehicle: saline with Tween-80 97 % of control | dose: 200.0 mg/kg/injection, schedule: Q01DX001 (ip), vehicle: saline with Tween-80 104 % of control | dose: 400.0 mg/kg/injection, schedule: Q01DX001 (ip), vehicle: saline with Tween-80 104 % of control

c1cncc(C2SCCCS2)c1
inactive: dose: 100.0 mg/kg/injection, schedule: Q04DX002 (ip), vehicle: DMSO 87 % of control | dose: 200.0 mg/kg/injection, schedule: Q04DX002 (ip), vehicle: DMSO 87 % of control

O=C(NC1CCCCC1)c1ccc(Cl)cc1Cl
inactive: [13] 100 % of control | [14] 100 % of control | [15] 96 % of control
